Test results as given in PMC7359870 (Journal of the American Chemical Society, 2020).
“Also recorded” adds a separate entry of the source. Starred links: 1 amine or outer side, 2 acyl side, 3 side chain; linkers in the order of their positions; H or OH if unused. Non-standard residues stand in square brackets, D forms with d. Residues, ends and D or L forms follow the SMILES beside them. *: point of attachment. X1 = CC(C)C[C@H](NC(=O)N(Cc1ccccc1)C[C@@H](O)[C@H](Cc1ccccc1)N*)C(=O)N[C@H](C(N)=O)C(C)C; X2 = CC(C)[C@H](NC(=O)[C@H](C)NC(=O)N(Cc1ccccc1)C[C@@H](O)[C@H](Cc1ccccc1)N*)C(N)=O; NH(CH2)8CO = O=C(CCCCCCCCN[*:1])[*:2]; Boc = CC(C)(C)OC(=O)*; Aib = CC(C)(N)C(=O)O; Ava = NCCCCC(=O)O

Legend:
purified γ-secretase = purified γ-secretase (Homo sapiens, UniProt P49768); assay: Purified enzyme assay: inhibition of γ-secretase; format: biochemical
γ-secretase [1] = target: T1, γ-secretase (Homo sapiens, UniProt P49768); assay: Cross-competition kinetic experiment between two inhibitors; format: biochemical; settings: for cross-competition with HPI 2 for binding: second inhibitor HPI 2 (docking site); for cross-competition with TSA 17 for binding: second inhibitor TSA 17 (active site)
γ-secretase [2] = target: T1, γ-secretase; assay: Enzyme inhibition kinetics; format: biochemical
[3] = target: presenilin-1 (PS1) N-terminal fragment (NTF) of γ-secretase (Homo sapiens, UniProt P49768); settings: solubilized lysates from γ-secretase-expressing human embryonic kidney 293 cells

SMILES	type of inhibition (enzyme inhibition kinetics) (γ-secretase [2])	labelling of PS1 NTF by active-site-directed photoprobe TSA-Bpa-Bt [3]	labelling of PS1 NTF by docking-site-directed photoprobe HPI-Bpa-Bt [3]	also measured
CC[C@H](C)[C@H](NC(=O)[C@@H](NC(=O)[C@@H](NC(=O)C(C)(C)NC(=O)CNC(=O)[C@@H](NC(=O)OC(C)(C)C)C(C)C)C(C)C)C(C)C)C(=O)NC(C)(C)C(=O)N[C@@H](Cc1ccccc1)C(=O)N[C@H](C(=O)NC(C)(C)C(=O)NCCCCC(=O)N[C@H](C(=O)N[C@@H](Cc1ccccc1)[C@H](O)CN(Cc1ccccc1)C(=O)N[C@@H](CC(C)C)C(=O)N[C@H](C(N)=O)C(C)C)C(C)C)C(C)C [Compound 5, Boc-Val-Gly-Aib-Val-Val-Ile-Aib-Phe-Val-Aib-NH(CH2)4CO-Val-Phe-ψ-Phe-Leu-Val-NH2] (Boc-VG[Aib]VVI[Aib]FV[Aib][Ava]V-X1)				potency compared to TSA 1 or HPI 2 (fold increase) (purified γ-secretase; relative to IC50 of TSA 1 or HPI 2): 4-to-6 fold
CC[C@H](C)[C@H](NC(=O)[C@@H](NC(=O)[C@@H](NC(=O)C(C)(C)NC(=O)CNC(=O)[C@@H](NC(=O)OC(C)(C)C)C(C)C)C(C)C)C(C)C)C(=O)NC(C)(C)C(=O)N[C@@H](Cc1ccccc1)C(=O)N[C@H](C(=O)NC(C)(C)C(=O)NCCCCCCCCC(=O)N[C@H](C(=O)N[C@@H](Cc1ccccc1)[C@H](O)CN(Cc1ccccc1)C(=O)N[C@@H](CC(C)C)C(=O)N[C@H](C(N)=O)C(C)C)C(C)C)C(C)C [Compound 6, Boc-Val-Gly-Aib-Val-Val-Ile-Aib-Phe-Val-Aib-NH(CH2)8CO-Val-Phe-ψ-Phe-Leu-Val-NH2] (Boc-VG[Aib]VVI[Aib]FV[Aib][NH(CH2)8CO]V-X1)	noncompetitive inhibition	Decreased photolabelling; also recorded: decreased labelling	Decreased photolabelling; also recorded: decreased labelling	cross-competition with HPI 2 for binding (γ-secretase [1]): competed; cross-competition with HPI 2 for binding (γ-secretase [1]; listed as HPI-TSA 6): competes; cross-competition with TSA 17 for binding (γ-secretase [1]): competed; cross-competition with TSA 17 for binding (γ-secretase [1]; listed as HPI-TSA 6): competes
CC[C@H](C)[C@H](NC(=O)[C@H](NC(=O)[C@H](NC(=O)C(C)(C)NC(=O)CNC(=O)[C@@H](NC(=O)OC(C)(C)C)C(C)C)C(C)C)C(C)C)C(=O)NC(C)(C)C(=O)N[C@@H](Cc1ccccc1)C(=O)N[C@H](C(=O)NC(C)(C)C(=O)NCCCCCCCCC(=O)N[C@H](C(=O)N[C@@H](Cc1ccccc1)[C@H](O)CN(Cc1ccccc1)C(=O)N[C@@H](CC(C)C)C(=O)N[C@H](C(N)=O)C(C)C)C(C)C)C(C)C [Compound 9, Boc-Val-Gly-Aib-^DVal-^D Val-Ile-Aib-Phe-Val-Aib-NH(CH2)8CO-Val-Phe-ψ-Phe-Leu-Val-NH2] (Boc-VG[Aib][dV][dV]I[Aib]FV[Aib][NH(CH2)8CO]V-X1)				reduction of inhibitory potency relative to 6 (purified γ-secretase; relative to HPI-TSA 6): decreased nearly eight-fold
CC[C@H](C)[C@H](NC(=O)[C@@H](NC(=O)[C@@H](NC(=O)C(C)(C)NC(=O)CNC(=O)[C@@H](NC(=O)OC(C)(C)C)C(C)C)C(C)C)C(C)C)C(=O)NC(C)(C)C(=O)N[C@@H](Cc1ccccc1)C(=O)N[C@H](C(=O)NC(C)(C)C(=O)NCCCCCCCCC(=O)N[C@H](C(=O)N[C@@H](Cc1ccccc1)[C@H](O)CN(Cc1ccccc1)C(=O)N[C@@H](C)C(=O)N[C@H](C(N)=O)C(C)C)C(C)C)C(C)C [Compound 16] (Boc-VG[Aib]VVI[Aib]FV[Aib][NH(CH2)8CO]V-X2; N-terminus and C-terminus assumed)	noncompetitive inhibition	Decreased photolabelling; also recorded: decreased labelling	Decreased photolabelling; also recorded: decreased labelling	
